Test results published in US20250163048A1 (Tango Therapeutics, Inc., priority 2022, published 2025).

Key:
[1] = test system: HAP1 MTAP-deleted cell line; experiment: SDMA in-cell western assay, HAP1 MTAP-deleted; conditions: for IC50 / IC90: Homo sapiens; for IC50: HAP1, read-out: Hap1 MTAP deleted IC50, SDMA in-cell western assay, HAP1 MTAP-deleted cell line; for IC90: HAP1, read-out: Hap1 MTAP deleted IC90, SDMA in-cell western assay, HAP1 MTAP-deleted cell line; for Hap1 MTAP intact/deleted ratio: IC50 ratio between HAP1 MTAP-intact and HAP1 MTAP-deleted cell line, SDMA in-cell western assay
[2] = test system: HAP1 MTAP-intact cell line; experiment: SDMA in-cell western assay, HAP1 MTAP-intact; conditions: Homo sapiens, HAP1, read-out: Hap1 MTAP intact IC50, SDMA in-cell western assay, HAP1 MTAP-intact cell line
MTAP-deleted cell line = experiment: viability assay for the MTAP-deleted cell line; type: cell-based; conditions: Homo sapiens, HAP1, viability assay

Compound | IC50 [1] [nM] | IC90 [1] [nM] | Hap1 MTAP intact/deleted ratio [1] | IC50 [2] [nM] | IC50 (MTAP-deleted cell line) [nM]
C[C@H]1CC[C@H](c2ccnc(OC3CC3)c2)N(C(=O)C(=O)Nc2cnc(N)c3cn[nH]c23)C1 (racemic) [Compound 247, N-(4-Amino-2H-pyrazolo[4,3-c]pyridin-7-yl)-2-oxo-2-[rac-(2R,5S)-2-[2-(cyclopropoxy)-4-pyridyl]-5-methyl-1-piperidyl]acetamide] | < 5 | < 75 | B (“B” indicates an IC50 ratio greater than or equal to 15 fold but lower than 30 fold) | 5 to 50 | < 100
CCn1cc2ccc([C@H]3CC[C@H](C)CN3C(=O)C(=O)Nc3cnc(N)c4cn[nH]c34)cc2n1 (racemic) [Compound 253, N-(4-Amino-1H-pyrazolo[4,3-c]pyridin-7-yl)-2-oxo-2-[rac-(2R,5S)-2-(2-ethylindazol-6-yl)-5-methyl-1-piperidyl]acetamide] | < 5 | < 75 | C (“C” indicates an IC50 ratio of less than 15 fold) | < 5 | < 100
C[C@H]1CC[C@H](C(C)(C)C)N(C(=O)C(=O)Nc2cnc(N)c3cn[nH]c23)C1 (racemic) [Compound 254, N-(4-Amino-1H-pyrazolo[4,3-c]pyridin-7-yl)-2-oxo-2-[rac-(2R,5S)-2-tert-butyl-5-methyl-1-piperidyl]acetamide] | 5 to 50 | > 125 | B (“B” indicates an IC50 ratio greater than or equal to 15 fold but lower than 30 fold) | > 50 | 100 to 1000
C[C@H]1CC[C@H](c2cccc3c2OCC3)N(C(=O)C(=O)Nc2cnc(N)c3cn[nH]c23)C1 (racemic) [Compound 255, N-(4-Amino-1H-pyrazolo[4,3-c]pyridin-7-yl)-2-oxo-2-[rac-(2R,5S)-2-(2,3-dihydrobenzofuran-7-yl)-5-methyl-1-piperidyl]acetamide] | < 5 | < 75 | B (“B” indicates an IC50 ratio greater than or equal to 15 fold but lower than 30 fold) | 5 to 50 | < 100
C[C@@H]1CCCN(C(=O)C(=O)Nc2cnc(N)c3cn[nH]c23)[C@H]1c1ccccc1 (racemic) [Compound 258, N-(4-Amino-1H-pyrazolo[4,3-c]pyridin-7-yl)-2-(3-methyl-2-phenyl-1-piperidyl)-2-oxo-acetamide] | 5 to 50 | 75 to 125 | A (“A” indicates an IC50 ratio greater than or equal to 30 fold) | > 50 | 100 to 1000
COc1cncc([C@H]2CC[C@H](C)CN2C(=O)C(=O)Nc2cnc(N)c3cn[nH]c23)c1 (racemic) [Compound 261, N-(4-Amino-1H-pyrazolo[4,3-c]pyridin-7-yl)-2-oxo-2-[rac-(2R,5S)-2-(5-methoxy-3-pyridyl)-5-methyl-1-piperidyl]acetamide] | < 5 | < 75 | A (“A” indicates an IC50 ratio greater than or equal to 30 fold) | > 50 | < 100
C[C@H]1CC[C@H](c2ccc(CCN(C)C)cc2)N(C(=O)C(=O)Nc2cnc(N)c3cn[nH]c23)C1 (racemic) [Compound 263, N-(4-Amino-2H-pyrazolo[4,3-c]pyridin-7-yl)-2-oxo-2-[rac-(2R,5S)-2-[4-[2-(dimethylamino)ethyl]phenyl]-5-methyl-1-piperidyl]acetamide] | < 5 | < 75 | C (“C” indicates an IC50 ratio of less than 15 fold) | 5 to 50 | < 100
C[C@H]1CC[C@H](c2ccc3cc(Cl)cnc3c2)N(C(=O)C(=O)Nc2cnc(N)c3cn[nH]c23)C1 (racemic) [Compound 264, N-(4-Amino-1H-pyrazolo[4,3-c]pyridin-7-yl)-2-oxo-2-[rac-(2R,5S)-2-(3-chloro-7-quinolyl)-5-methyl-1-piperidyl]acetamide] | < 5 | < 75 | B (“B” indicates an IC50 ratio greater than or equal to 15 fold but lower than 30 fold) | 5 to 50 | < 100
